Measurements published in patent US8361968B2 (Takeda Pharmaceutical Company Limited, priority 2002, dated 2013).
Numbered stars: 1 amine (or outer) side, 2 acyl side, 3 side chain; on linkers, the order of the positions; unused ones are H or OH. Square brackets hold non-standard residues; d marks the D form. Peptide text beside a SMILES is read from it. * marks the point of attachment. X11 = O=C(CNC(=S)[C@H](Cc1ccccc1)N[*:1])[*:2]; 2Nal = N[C@@H](Cc1ccc2ccccc2c1)C(=O)O; Arg(Me) = CNC(=N)NCCC[C@H](N)C(=O)O; Fmoc = O=C(OCC1c2ccccc2-c2ccccc21)*; 4Pal = N[C@@H](Cc1ccncc1)C(=O)O; X3 = NC(=S)[C@H](Cc1ccccc1)N*

Each compound was assayed against hOT7T175 (Homo sapiens, UniProt Q969F8, L364H) (assay: Intracellular Ca ion level-increasing activity using FLIPR in hOT7T175/CHO). Details: relative, Metastin (1-54) = 1.
Assay type: cell-based
Set-up: expressed in transfected cells; host or cells: CHO/dhfr- cells, obtained from ATCC
Experimental: Assay for Intracellular Ca Ion Level-Increasing Activity Using Flipr
In accordance with the method described in JPA 2000-312590, the intracellular Ca ion level-increasing activity was measured using FLIPR.
The stable expression cell line hOT7T175 was acquired by transduction of expression plasmid pAK-rOT175 for animal cells into CHO/dhff cells, using CellPhect Transfection Kit (Amersham Pharmacia Biotech, Inc.). First, 240 μL of Buffer A (attached to CellPhect Transfection Kit) was added to 9.6 μg of plasmid DNA dissolved in 240 μl of distilled water, followed by stirring. After settling the mixture for 10 minutes, 480 μL of Buffer B (attached to CellPhect Transfection Kit) was added to the mixture, which was vigorously stirred to form DNA-containing liposomes. Then, 4×10^5 CHO/dhff cells (obtained from ATCC) were inoculated on a 60 mm Petri dish. […] After culturing the cells at 37° C. for 6 hours in 5% carbon dioxide gas, the cells were washed twice with serum-free Ham's F-12 medium and 3 ml of 15% glycerol was added to the cells in the Petri dish to treat for 2 minutes. The cells were again washed twice with serum-free Ham's F-12 medium followed by incubation in Ham's F-12 medium supplemented with 10% fetal bovine serum at 37° C. for 15 hours in 5% carbon dioxide gas. The cells were dispersed by trypsin treatment and recovered from the Petri dish. The recovered cells were inoculated on a 6-well plate in 1.25×10^4 cells/well and incubation was initiated at 37° C. in Dulbecco's modified Eagle medium (DMEM) medium (Nissui Seiyaku Co., Ltd.) containing 10% dialyzed fetal bovine serum (JRH BIOSCIENCES, Inc.) under 5% carbon dioxide gas. […] The medium was exchanged on Days 1 and 2 to remove the cells died.
The intracellular Ca ion level-increasing activity of the synthetic peptide in hOT7T175/CHO was determined using FLIPR (Molecular Devices, Inc.).
hOT7T175/CHO was subcultured in DMEM supplemented with 10% dialyzed fetal bovine serum (hereinafter abbreviated as dFBS) and provided for the experiment (hereinafter abbreviated as 10% dFBS/DMEM). The hOT7T175/CHO was suspended in 10% dFBS-DMEM in 15×10^4 cells/ml. The suspension was inoculated on a 96-well plate for FLIPR (Black Plate Clear Bottom, Coster, Inc.) at 200 μL each (3.0×10^4 cells/200 μL/well), followed by incubation at 37° C. overnight in a 5% CO2 incubator (hereinafter simply referred to as the cell plate). Then, 21 ml of HANKS/HBSS (9.8 g of HANKS, 0.35 g of sodium hydrogencarbonate, 20 ml of 1M HEPES; after adjusting the pH to 7.4 with 1N sodium hydroxide, the mixture was sterilized by filtration), 210 μl of 250 mM Probenecid and […] of fetal bovine serum (FBS) were mixed (HANKS/HBSS-Probenecid-FBS).
Furthermore, 2 vials of Fluo3-AM (50 μug/vial) were dissolved in 21 μL of dimethylsulfoxide and 21 μL of 20% Pluronic acid. The resulting solution was added to and mixed with 10 ml of HANKS/HBSS-Probenecid-FBS described above. After the culture medium was removed, the mixture was dispensed onto the cell plate in 100 μL each/well, followed by incubation at 37° C. for an hour in a 5% CO2 incubator (pigment loading). The peptide was dissolved in dimethylsulfoxide in 1×10^−3 M. The peptide solution was diluted with HANKS/HBSS containing 2.5 mM Probenecid, 0.2% BSA and 0.1% CHAPS.

Chain of hOT7T175 (Q969F8 whole entry L364H): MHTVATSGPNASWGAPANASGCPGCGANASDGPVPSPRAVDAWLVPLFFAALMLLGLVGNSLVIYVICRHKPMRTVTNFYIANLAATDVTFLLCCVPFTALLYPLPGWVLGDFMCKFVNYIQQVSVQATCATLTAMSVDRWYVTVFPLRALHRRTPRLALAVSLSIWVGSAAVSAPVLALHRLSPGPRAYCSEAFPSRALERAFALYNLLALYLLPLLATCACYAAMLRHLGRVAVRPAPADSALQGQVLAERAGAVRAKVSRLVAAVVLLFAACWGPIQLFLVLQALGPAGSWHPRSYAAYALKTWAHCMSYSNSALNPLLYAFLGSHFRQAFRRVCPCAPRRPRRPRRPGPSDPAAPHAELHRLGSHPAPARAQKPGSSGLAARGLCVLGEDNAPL

In order of falling “Specific Activity (intracellular Ca ion level-increasing activity)” value:
1. CC(C)C[C@H](NC(=O)CNC(=O)[C@H](Cc1ccccc1)NC(=O)[C@H](CO)NC(=O)[C@H](CC(N)=O)NC(=O)[C@@H](Cc1c[nH]c2ccccc12)NC(=O)[C@H](CC(N)=O)NC(=O)[C@@H](N)Cc1ccc(O)cc1)C(=O)N[C@@H](CCCNC(=N)N)C(=O)N[C@@H](Cc1ccccc1)C(N)=O [Compound No. 40]  30
2. CC(C)C[C@H](NC(=O)CNC(=O)[C@H](Cc1ccccc1)NC(=O)[C@H](CO)NC(=O)[C@H](CC(N)=O)NC(=O)[C@H](Cc1c[nH]c2ccccc12)NC(=O)[C@H](CC(N)=O)NC(=O)[C@@H](N)Cc1ccc(O)cc1)C(=O)N[C@@H](CCCNC(=N)N)C(=O)N[C@@H](Cc1ccc2ccccc2c1)C(N)=O [Compound No. 110] (H-YNWNSFGLR[2Nal]-NH2)  20
3. CC(=O)N[C@@H](Cc1ccc(O)cc1)C(=O)N[C@@H](CC(N)=O)C(=O)N[C@@H](Cc1c[nH]c2ccccc12)C(=O)N[C@@H](CC(N)=O)C(=O)N[C@@H](CO)C(=O)N[C@@H](Cc1ccccc1)C(=O)NCC(=O)N[C@@H](CC(C)C)C(=O)N[C@@H](CCCNC(=N)N)C(=O)N[C@@H](Cc1ccccc1)C(N)=O [Compound No. 30]  10
4. CC(C)C[C@H](NC(=O)CNC(=O)[C@H](Cc1ccccc1)NC(=O)[C@H](CO)NC(=O)[C@H](CC(N)=O)NC(=O)[C@H](Cc1c[nH]c2ccccc12)NC(=O)[C@@H](CC(N)=O)NC(=O)[C@@H](N)Cc1ccc(O)cc1)C(=O)N[C@@H](CCCNC(=N)N)C(=O)N[C@@H](Cc1ccccc1)C(N)=O [Compound No. 41]  10
5. CC(C)C[C@H](NC(=O)CNC(=O)[C@H](Cc1ccccc1)NC(=O)[C@H](CO)NC(=O)[C@H](CC(N)=O)NC(=O)[C@H](Cc1c[nH]c2ccccc12)NC(=O)[C@H](CC(N)=O)NC(=O)[C@@H](N)Cc1ccc(O)cc1)C(=O)N[C@@H](CCCNC(=N)N)C(=O)N[C@@H](Cc1ccccc1)C(N)=S [Compound No. 128] (H-YNWNSFGLR-X3)  10
6. CC(C)C[C@H](NC(=O)CNC(=O)[C@H](Cc1ccccc1)NC(=O)[C@H](CO)NC(=O)[C@H](CC(N)=O)NC(=O)[C@H](Cc1c[nH]c2ccccc12)NC(=O)[C@H](CC(N)=O)NC(=O)[C@@H](N)Cc1ccc(O)cc1)C(=O)N[C@@H](CCCNC(=N)N)C(=O)N[C@@H](Cc1ccc([N+](=O)[O-])cc1)C(N)=O [Compound No. 132]  10
7. CNC(=N)NCCC[C@H](NC(=O)[C@H](CC(C)C)NC(=O)CNC(=O)[C@H](Cc1ccccc1)NC(=O)[C@H](CO)NC(=O)[C@H](CC(N)=O)NC(=O)[C@H](Cc1c[nH]c2ccccc12)NC(=O)[C@H](CC(N)=O)NC(=O)[C@H](N)Cc1ccc(O)cc1)C(=O)N[C@@H](Cc1c[nH]c2ccccc12)C(N)=O [Compound No. 174] (H-[dY]NWNSFGL[Arg(Me)]W-NH2)  10
8. 3-Pyridylpropionyl-Asn-Ser-Phe-AzaGly-Leu-Arg(Me)-Trp-NH2 [Compound No. 386]  7
9. CC(C)C[C@H](NC(=O)CNC(=O)[C@H](Cc1ccccc1)NC(=O)[C@H](CO)NC(=O)[C@H](CC(N)=O)NC(=O)[C@H](Cc1c[nH]c2ccccc12)NC(=O)[C@H](CC(N)=O)NC(=O)[C@@H](N)Cc1ccc(O)cc1)C(=O)N[C@@H](CCCNC(=N)N)C(=O)N[C@@H](Cc1ccncc1)C(N)=O [Compound No. 17] (H-YNWNSFGLR[4Pal]-NH2)  5
10. CC(C)C[C@H](NC(=O)CNC(=O)[C@H](Cc1ccccc1)NC(=O)[C@H](CO)NC(=O)[C@H](CC(N)=O)NC(=O)[C@H](Cc1c[nH]c2ccccc12)NC(=O)OCC1c2ccccc2-c2ccccc21)C(=O)N[C@@H](CCCNC(=N)N)C(=O)N[C@@H](Cc1ccccc1)C(N)=O [Compound No. 54] (Fmoc-WNSFGLRF-NH2)  5
11. CC(C)C[C@H](NC(=O)CNC(=O)[C@H](Cc1ccc2ccccc2c1)NC(=O)[C@H](CO)NC(=O)[C@H](CC(N)=O)NC(=O)[C@H](Cc1c[nH]c2ccccc12)NC(=O)[C@H](CC(N)=O)NC(=O)[C@@H](N)Cc1ccc(O)cc1)C(=O)N[C@@H](CCCNC(=N)N)C(=O)N[C@@H](Cc1ccccc1)C(N)=O [Compound No. 152, Tyr-Asn-Trp-Asn-Ser-Nal(2)-Gly-Leu-Arg-Phe-NH2] (H-YNWNS[2Nal]GLRF-NH2)  5
12. CC(C)C[C@H](NC(=O)CNC(=O)[C@H](Cc1ccc(F)cc1)NC(=O)[C@H](CO)NC(=O)[C@H](CC(N)=O)NC(=O)[C@H](Cc1c[nH]c2ccccc12)NC(=O)[C@H](CC(N)=O)NC(=O)[C@@H](N)Cc1ccc(O)cc1)C(=O)N[C@@H](CCCNC(=N)N)C(=O)N[C@@H](Cc1ccccc1)C(N)=O [Compound No. 154, Tyr-Asn-Trp-Asn-Ser-Phe(4F)-Gly-Leu-Arg-Phe-NH2]  5
13. CC(C)C[C@H](NC(=O)CNC(=S)[C@H](Cc1ccccc1)NC(=O)[C@H](CO)NC(=O)[C@H](CC(N)=O)NC(=O)[C@H](Cc1c[nH]c2ccccc12)NC(=O)[C@H](CC(N)=O)NC(=O)[C@@H](N)Cc1ccc(O)cc1)C(=O)N[C@@H](CCCNC(=N)N)C(=O)N[C@@H](Cc1ccccc1)C(N)=O [Compound No. 166, Tyr-Asn-Trp-Asn-Ser-Phe Ψ(CSNH)Gly-Leu-Arg-Phe-NH2] (H-YNWNS[X11]LRF-NH2)  5
14. 2-Aminoethyl-Gly-D-Tyr-Asn-Trp-Asn-Ser-Phe-Gly-Leu-Arg(Me)-Phe-NH2 [Compound No. 375]  2
15. CC(C)C[C@H](NC(=O)CNC(=O)[C@H](Cc1ccccc1)NC(=O)[C@H](CO)NC(=O)[C@H](CC(N)=O)NC(=O)[C@H](Cc1c[nH]c2ccccc12)NC(=O)[C@H](CC(N)=O)NC(=O)[C@@H](N)Cc1ccc(O)cc1)C(=O)N[C@@H](CCCNC(=N)N)C(=O)N[C@@H](Cc1ccccc1F)C(N)=O [Compound No. 19]  2
16. CC(C)C[C@H](NC(=O)CNC(=O)[C@H](Cc1ccccc1)NC(=O)[C@H](CO)NC(=O)[C@H](CC(N)=O)NC(=O)[C@H](Cc1c[nH]c2ccccc12)NC(=O)[C@H](CC(N)=O)NC(=O)[C@H](Cc1ccc(O)cc1)NC(=O)OCC1c2ccccc2-c2ccccc21)C(=O)N[C@@H](CCCNC(=N)N)C(=O)N[C@@H](Cc1ccccc1)C(N)=O [Compound No. 31]  2
17. CNC(=N)NCCC[C@H](NC(=O)[C@H](CC(C)C)NC(=O)CNC(=O)[C@H](Cc1ccccc1)NC(=O)[C@H](CO)NC(=O)[C@H](CC(N)=O)NC(=O)[C@H](C)NC(=O)[C@H](CC(N)=O)NC(=O)[C@H](N)Cc1ccc(O)cc1)C(=O)N[C@@H](Cc1ccccc1)C(N)=O [Compound No. 169] (H-[dY]NANSFGL[Arg(Me)]F-NH2)  2
18. CC(C)C[C@H](NC(=O)CNC(=O)[C@H](Cc1ccccc1)NC(=O)[C@H](CC(C)C)NC(=O)[C@H](CC(N)=O)NC(=O)[C@H](Cc1c[nH]c2ccccc12)NC(=O)[C@H](CC(N)=O)NC(=O)[C@@H](N)Cc1ccc(O)cc1)C(=O)N[C@@H](CCCNC(=N)N)C(=O)N[C@@H](Cc1ccccc1)C(N)=O [Compound No. 24] (H-YNWNLFGLRF-NH2)  1
19. CC(C)C[C@H](NC(=O)CNC[C@H](Cc1ccccc1)NC(=O)[C@H](CO)NC(=O)[C@H](CC(N)=O)NC(=O)[C@H](Cc1c[nH]c2ccccc12)NC(=O)[C@H](CC(N)=O)NC(=O)[C@@H](N)Cc1ccc(O)cc1)C(=O)N[C@@H](CCCNC(=N)N)C(=O)N[C@@H](Cc1ccccc1)C(N)=O [Compound No. 163, Tyr-Asn-Trp-Asn-Ser-PheΨ(CH2NH)Gly-Leu-Arg-Phe-NH2]  1
